# Experiments:
# Type in all cases: in vivo
# [1] = system: Erysiphe graminis f. sp. tritici; test: Test A: wheat powdery mildew, preventive spray on wheat seedlings; settings: 200 ppm, 100 = 100% disease control, 0 = no control relative to controls; for pest or weed control at 200 ppm: Blumeria graminis, 192 h, read-out: Test A disease control rating
# Summary of the method: (§1)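 Compounds were dissolved in acetone (3% of final volume), then suspended in 50/50 acetone/purified water with 250 ppm Trem 014 surfactant. Plants were sprayed to run-off at 200 ppm (equivalent to 500 g/ha) or 40 ppm.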
# [2] = system: Puccinia recondita f. sp. tritici; test: Test B: wheat leaf rust, preventive spray on wheat seedlings; settings: 200 ppm, 100 = 100% disease control, 0 = no control relative to controls; for pest or weed control at 200 ppm: Puccinia recondita, 192 h, read-out: Test B disease control rating
# Summary of the method: as §1
# Septoria nodorum = test: Test C: wheat glume blotch, preventive spray on wheat seedlings; settings: 200 ppm, 100 = 100% disease control, 0 = no control relative to controls; for pest or weed control at 200 ppm: Parastagonospora nodorum, 216 h, read-out: Test C disease control rating
# Summary of the method: as §1
# Septoria tritici = test: Test D: wheat leaf blotch, preventive spray on wheat seedlings; settings: 200 ppm, 100 = 100% disease control, 0 = no control relative to controls; for pest or weed control at 200 ppm: Zymoseptoria tritici, 504 h, read-out: Test D disease control rating
# Summary of the method: as §1
# Fusarium graminearum = test: whole plant or invertebrate; settings: for Test E disease control rating: 200 ppm, 100 = 100% disease control, 0 = no control relative to controls; for pest or weed control at 200 ppm: Fusarium graminearum, in Triticum aestivum, 192 h, read-out: Test E disease control rating
# Botrytis cinerea = test: Test F: tomato Botrytis, preventive spray on tomato seedlings; settings: 200 ppm, 100 = 100% disease control, 0 = no control relative to controls; for pest or weed control at 200 ppm: Botrytis cinerea, 120 h, read-out: Test F disease control rating
# Summary of the method: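 Preventive run-off spray onto tomato seedlings at 200 ppm (equivalent to 500 g/ha) or 40 ppm. Suspensions: compound predissolved in acetone at 3% of final volume, then taken up in acetone/purified water 50/50 containing 250 ppm Trem® 014 surfactant.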
# [3] = system: Colletotrichum orbiculare; test: Test I: cucumber Colletotrichum anthracnose, preventive spray on cucumber seedlings; settings: 100 = 100% disease control, 0 = no control relative to controls; for Test I disease control rating: 200 ppm; for pest or weed control at 200 ppm: Colletotrichum orbiculare, 144 h, read-out: Test I disease control rating
# Summary of the method: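 Preventive foliar spray to run-off on cucumber seedlings, at 200 ppm (stated as equal to 500 g/ha) or 40 ppm. Test suspensions were made in acetone/water 50/50 containing 250 ppm Trem 014, after first dissolving compound in acetone at 3% of final volume.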
# Uncinula necator = test: Test N: grape powdery mildew, preventive spray on grape seedlings; settings: 100 ppm (100 g/ha, 1000 L/ha), inoculated the following day, 100 = 100% disease control, 0 = no control relative to controls
# From the text: (§2) General protocol for preparing test suspensions for Tests A-R: The test compounds were first dissolved in acetone in an amount equal to 3% of the final volume and then suspended at the desired concentration (in ppm) in acetone and purified water (50/50 mix) containing 250 ppm of the surfactant Trem® 014 (polyhydric alcohol esters). The resulting test suspensions were then used in tests A-R. In Tests A-M, compounds were sprayed as a 200 ppm test suspension (equivalent to a rate of 500 g/ha) or as a 40 ppm test suspension to the point of runoff on the test plants. In Tests N-R, compounds were sprayed as a 100 g/ha test suspension (equivalent to a rate of 100 ppm) on the test plants at an application volume of 1000 L/ha. The test suspension was sprayed on grape seedlings.
# Venturia inaequalis = test: Test O: apple scab, preventive spray on apple seedlings; settings: 100 ppm (100 g/ha, 1000 L/ha), inoculated the following day, 100 = 100% disease control, 0 = no control relative to controls
# From the text: as §2, with “apple” for “grape”
# Plasmopara viticola [4] = test: Test R: grape downy mildew, preventive spray on grape seedlings; settings: 100 ppm (100 g/ha, 1000 L/ha), inoculated the following day, 100 = 100% disease control, 0 = no control relative to controls
# From the text: as §2, with “seedlings. The following day the seedlings were inoculated with a spore suspension of Plasmopara viticola (the causal agent of grape downy mildew) and incubated in a saturated atmosphere at 20° C. for 24 h, then moved to a growth chamber at 20° C. for 7 days, after which time the test units were placed back into a saturated atmosphere at 20° C. for 24 h. Upon removal, disease ratings were made.” for “seedlings.”
# Alternaria solani = test: Test H: tomato early blight, preventive spray on seedlings; settings: 200 ppm; 100 = 100% disease control, 0 = no control relative to controls
# From the text: as §2, with “was sprayed to the point of run-off on wheat” for “was sprayed on grape”, “run-off on wheat seedlings.” for “sprayed on grape seedlings.”
# Rhizoctonia oryzae = test: Test J: turf brown patch, preventive spray on creeping bent grass seedlings; settings: 200 ppm; 100 = 100% disease control, 0 = no control relative to controls
# From the text: General protocol for preparing test suspensions for Tests A-R: The test compounds were first dissolved in acetone in an amount equal to 3% of the final volume and then suspended at the desired concentration (in ppm) in acetone and purified water (50/50 mix) containing 250 ppm of the surfactant Trem® 014 (polyhydric alcohol esters). The resulting test suspensions were then used in tests A-R. In Tests A-M, compounds were sprayed as a 200 ppm test suspension (equivalent to a rate of 500 g/ha) or as a 40 ppm test suspension to the point of runoff on the test plants. In Tests N-R, compounds were sprayed as a 100 g/ha test suspension (equivalent to a rate of 100 ppm) on the test plants at an application volume of 1000 L/ha. The test suspension was sprayed to the point of run-off on creeping bent grass seedlings.
# Phytophthora infestans = settings: 200 ppm; 100 = 100% disease control, 0 = no control relative to controls
# Plasmopara viticola [5] = test: Test L: grape downy mildew, spray after inoculation of grape seedlings; settings: 200 ppm; 100 = 100% disease control, 0 = no control relative to controls
# From the text: General protocol for preparing test suspensions for Tests A-R: The test compounds were first dissolved in acetone in an amount equal to 3% of the final volume and then suspended at the desired concentration (in ppm) in acetone and purified water (50/50 mix) containing 250 ppm of the surfactant Trem® 014 (polyhydric alcohol esters). The resulting test suspensions were then used in tests A-R. In Tests A-M, compounds were sprayed as a 200 ppm test suspension (equivalent to a rate of 500 g/ha) or as a 40 ppm test suspension to the point of runoff on the test plants. In Tests N-R, compounds were sprayed as a 100 g/ha test suspension (equivalent to a rate of 100 ppm) on the test plants at an application volume of 1000 L/ha. Grape seedlings were inoculated with a spore suspension of Plasmopara viticola (the causal agent of grape downy mildew) and incubated in a saturated atmosphere at 20° C. for 24 h. After a short drying period, the test suspension was sprayed to the point of run-off on the grape seedlings and then moved to a growth chamber at 20° C. for 6 days, after which time the test units were placed back into a saturated atmosphere at 20° C. for 24 h. Upon removal, disease ratings were made.
# Pythium aphanidermatum = test: Test M: bluegrass pythium blight, preventive spray on bluegrass seedlings; settings: 200 ppm; 100 = 100% disease control, 0 = no control relative to controls
# From the text: as §2, with “was sprayed to the point of run-off on bluegrass” for “was sprayed on grape”, “run-off on bluegrass seedlings.” for “sprayed on grape seedlings.”
Compound,Test A disease control rating [1] [%],Test B disease control rating [2] [%],Test C disease control rating (Septoria nodorum) [%],Test D disease control rating (Septoria tritici) [%],Test E disease control rating (Fusarium graminearum) [%],Test F disease control rating (Botrytis cinerea) [%],Test I disease control rating [3] [%],Test N disease control rating (Uncinula necator) [%],Test O disease control rating (Venturia inaequalis) [%],Test R disease control rating (Plasmopara viticola [4]) [%],further results
Clc1cccc(Cl)c1Nc1cc(-c2ccnc(NC3CCOCC3)n2)ccn1 [Compound 81],95,100,99,92,97,99,91,97,69,97,–
"Fc1cccc(Nc2cc(-c3ccnc(NC4CCOCC4)n3)ccn2)c1 [Compound 67, 4-[2-[(3-fluorophenyl)amino]-4-pyridinyl]-N-(tetrahydro-2H-pyran-4-yl)-2-pyrimidinamine]",–,–,–,–,–,–,–,55,73,94,pest or weed control at 200 ppm [1]: 17%; pest or weed control at 200 ppm [2]: 97%; pest or weed control at 200 ppm (Septoria nodorum): 99%; pest or weed control at 200 ppm (Septoria tritici): 52%; pest or weed control at 200 ppm (Fusarium graminearum): 0%; pest or weed control at 200 ppm (Botrytis cinerea): 95%; pest or weed control at 200 ppm [3]: 79%
COC[C@H](C)Nc1nccc(-c2ncnc(Nc3cccc(Br)c3)n2)n1 [Compound 11],–,96,100,0,99,96,–,85,92,27,Test H disease control rating (Alternaria solani): 98%
"COCC(C)Nc1nccc(-c2ncnc(Nc3cccc(Cl)c3)n2)n1 (stereo not drawn) [Compound 1, N-(3-chlorophenyl)-4-[2-[(2-methoxy-1-methylethyl)amino]-4-pyrimidinyl]-1,3,5-triazine-2-amine]",–,–,–,–,–,–,–,90,78,26,pest or weed control at 200 ppm [1]: 76%; pest or weed control at 200 ppm [2]: 96%; pest or weed control at 200 ppm (Septoria nodorum): 100%; pest or weed control at 200 ppm (Septoria tritici): 0%; pest or weed control at 200 ppm (Fusarium graminearum): 98%; pest or weed control at 200 ppm (Botrytis cinerea): 98%; pest or weed control at 200 ppm [3]: 99%
Cc1cc(C)c(Nc2cc(-c3ccnc(NC4CCOCC4)n3)ccn2)c(Cl)c1 [Compound 90],98,99,100,47,100,99,93,98,–,98,–
COC[C@H](C)Nc1nccc(-c2ncnc(Nc3cccc([N+](=O)[O-])c3)n2)n1 [Compound 21],–,99,97,13,87,72,96,57,99,79,–
COCC(C)Nc1nccc(-c2ccnc(Nc3cccc(C#N)c3)c2)n1 (stereo not drawn) [Compound 42],0,88,94,9,0,75,92,–,–,–,Test J disease control rating (Rhizoctonia oryzae): 0%; Test K disease control rating (Phytophthora infestans): 0%; Test L disease control rating (Plasmopara viticola [5]): 16%; Test M disease control rating (Pythium aphanidermatum): 0%
Clc1cc(Cl)c(Nc2cc(-c3ccnc(NC4CCOCC4)n3)ccn2)c(Cl)c1 [Compound 99],0,95,100,30,92,0,0,30,83,99,–

# — patent publication US8026359B2, “Fungicidal heterocyclic amines” (E.I. du Pont de Nemours and Company, priority 2007, dated 2011)
